Literature values as cited in patent US5409946A, “Isoxazole, isothiazole and pyrazole compounds that enhance cognitive function” (Abbott Laboratories, priority 1993, dated 1995).

Assays:
[1] = cited from earlier work
nicotinic receptors = conditions: chronic administration, without affecting affinity; cited from earlier work
[2] = system: signs and symptoms of nicotine withdrawal; conditions: double-blind studies; cited from earlier work
cognitive function = conditions: acutely and chronically administered; cited from earlier work

CN1CCCC1c1cccnc1 (centres unmarked) [nicotine]
pharmacokinetics ([1]; in vivo): unfavorable pharmacokinetics
oral bioavailability ([1]; oral): poor oral bioavailability
up-regulation of number of receptors (nicotinic receptors): 50-100%
suppression of withdrawal signs and symptoms versus placebo [2]: far superior to a placebo
effect on cognitive function (cognitive function): enhances cognitive function in rats
